# Source: patent US20070293572A1, “Anti-Fatigue Composition” (priority 2004, published 2007)
# System: Sprague-Dawley male rats
# Assay: Treadmill Test using Young Rat (1)
# Type: in vivo
# Settings: oral 100 mg/kg; for Extension of maximum running time (result in words): before vs three hours after administration; for Extension of maximum running time: maximum running time three hours after vs before administration, 7 to 10 week old rats, n=20
# Description: Treadmill Test using Young Rat (1)
# Using Sprague-Dawley malerats (7 to 10 week old, n=20) anti-fatigue effects brought about by reduced coenzyme Q10 alone (about 2% of oxidized coenzyme Q10 included), carnitine alone, and combination use of reduced coenzyme Q10 and carnitine were evaluated with a treadmill. In the test, rats were run at a speed of 10 m/min using a treadmill apparatus (model NK-73-4 made by Natume Seisakusho Co., Ltd.), and the speed was increased stepwise, by 5 m/min every 3 minutes, and the time when the rats became unable to run (maximum running time) was measured.
# As a substance to be tested, a 0.5% sodium carboxymethylcellulose (CMC-Na) aqueous solution of reduced coenzyme Q10 (about 2% of oxidized coenzyme Q10 included) or carnitine (reduced coenzyme Q10 or carnitine/CMC-Na=10 mg/ml) was prepared and the solution was orally administered to rats at a dose of 100 mg/kg. Rats were divided into four groups of a solvent administered group, reduced coenzyme Q10 only administered group, a carnitine only administered group, and a reduced coenzyme Q10 and carnitine combined group. The maximum running time was measured before and three hours after the administration and the time extended from the maximum running time was calculated. A 0.5% CMC-Na aqueous solution was administered to the control group.
SMILES,Extension of maximum running time (result in words),Extension of maximum running time [S]
"COc1c(O)c(C)c(C/C=C(\C)CC/C=C(\C)CC/C=C(\C)CC/C=C(\C)CC/C=C(\C)CC/C=C(\C)CC/C=C(\C)CC/C=C(\C)CC/C=C(\C)CCC=C(C)C)c(O)c1OC [Reduced coenzyme Q10, reduced coenzyme Q10]",no extension of the maximum running time,−22 ± 71
"C[N+](C)(C)CC(O)CC(=O)[O-] (stereo not shown) [Carnitine, 4-trimethylamino-3-hydroxybutyric acid]",no extension of the maximum running time,−0 ± 151
